Experimental data from patent US20110217412A1, “CHOLESTEROL LOWERING SUPPLEMENT AND LOW CHOLESTEROL EGG PRODUCED BY USING THE SAME” (JINIS BIOPHARMACEUTICALS CO., priority 2004, published 2011).

Columns and labels:
hens [1] = details: cited from earlier work
ISA brown hens [2] = assay: Egg laying performance of hens fed supplemented diet (egg weight, egg production); format: in vivo; details: for Egg production: 6 weeks
Procedure: (§1) Healthy ISA brown hens, 45-week old, were assigned randomly to each dietary group (control group, 8 birds; experimental group, 6 birds each). Each bird was placed in an individual cage in an environmentally controlled room (25° C., 50% relative humidity, 16L:8D). The hens were allowed for 2 weeks in which to adapt to the feed with no additives and the housing. Control birds were fed a commercial diet based on corn and soybean meal (Table 1), while birds in experimental groups were fed diets supplemented with 0.003 or 0.03% of compactin (Sigma Aldrich Korea) for 6 weeks. Feed and water were provided ad libitum throughout the experiment. Feed consumption, egg production and egg weight were recorded daily. Egg production was expressed as percent hen day production; (100×number of eggs laid)/(number of hens×days).
The effects of 0.003% or 0.03% compactin on the laying performance of 45-week old ISA brown hens were investigated (Table 2). Egg weight was maintained at more than 60 grams after 6 weeks of oral administrations of compactin at both doses. […] Maintenance of laying performance with compactin feeding is of contrast to the previous art in which atorvastatin reduced egg production down to 70% after feeding for 5-week.
Egg production and yolk cholesterol analysis was performed with 0.003 and 0.03% pravastatin administered group with the same procedure as described in Example 1 above. Hen performance was investigated by measuring egg weight and egg production as in Table 4. Pravastatin group had maintained above 80% of egg production rate after 6-week administration, same as control.
(§2) Egg production and yolk cholesterol analysis was performed with the same procedure as described in Example 1 above except 0.5 and 1% of Streptomyces cell precipitates and bioconversion reaction broth were administered instead of compactin. Hen performance was investigated by measuring egg weight and egg production as in Table 6.

ISA brown hens [3] = assay: Egg cholesterol analysis (yolk weight, gas chromatography of yolk cholesterol) of hens fed supplemented diet; format: in vivo; details: compared to control
Procedure: as §1
For egg cholesterol analysis, eggs from each bird were collected and egg yolk was separated, weighed, and sampled for analysis. Lipids from eggs were extracted by the method of Folch et al. (1957). Briefly, one gram of sample was saponified with 3 mL of 33% KOH and incubated with 30 mL of 95% methanol in a 65° C. water bath for 90 min. After saponification, 10 mL hexane and 3 mL water were added, followed by vigorous shaking for 10 min. 5α-cholestan (Sigma C-8300) was used as an internal standard. Cholesterol content was determined by a gas chromatography (Shimadzu, Japan) using column VB-1 (30 m×0.25 mm×0.25 μm, VICI Inc.) with a split ratio of 100:1 and nitrogen as carrier gas for a column flow rate of 0.54 mL/min. Injector, column, and detector temperatures were 275° C., 290° C., and 340° C., respectively. […] The average control yolk weight was 17.2 g. […] Administration of compactin caused the significant reduction in yolk weight, compared to the control with 12.8 mg cholesterol per gram of yolk. When expressed as total yolk cholesterol content, percentage changes compared to that of control were 16% and 29% at 0.003% and 0.03% compactin, respectively.
Streptomyces cell precipitates and cell culture broth after compactin bioconversion were used as cholesterol lowering supplements respectively. First, compactin bioconversion was done as following. Single colony of streptomyces carbophilus was inoculated into 100 ml R2YE in 500 ml erlenmyer flask and incubated at 27° C. at 200 rpm for 3 days. After incubation, 10 ml of seed culture was added to 100 ml of conversion media (glucose 2.0%, corn steep liquor 0.2%, K2HPO4 0.15%, yeast extract 0.1%, MgSO4.7H2O 0.15%, ZnSO47H2O 0.001%, NH4NO3 0.1%, peptone 0.1%, pH 7.0) in 500 ml flask and incubated at 27° C. at 200 rpm for 3 days. Then, filter sterilized compactin salt was added into culture up to 0.1% weight of culture and incubated for another 4 days. After bioconversion reaction, culture media was analyzed by TLC to confirm the presence of compactin and pravastatin. This culture was freeze dried for 24 hours and then used as cholesterol lowering supplements. Also Streptomyces cells were obtained from bioconversion reaction by centrifugation at 3,000×g. Streptomyces cell precipitates recovered as pellets was dried at 60° C. and used as cholesterol lowering supplements. Streptomyces cell precipitates as well as bioconversion reaction broth was dried and used as cholesterol lowering supplements as shown in Example 1. Egg production and cholesterol amount were measured afterward.
as §2

[4] = cited from earlier work
hens [5] = details: cited from earlier work; remark: listed apart in the source
[6] = 0.003 weight % pravastatin in feed
[7] = 0.03 weight % pravastatin in feed

Question: For CC[C@H](C)C(=O)O[C@H]1C[C@@H](C)C=C2C=C[C@H](C)[C@H](CC[C@@H]3C[C@@H](O)CC(=O)O3)[C@H]21 [lovastatin], which “Reduction in cholesterol content in eggs” value (hens [1]; dose of 0.03%) is on record?
Answer: The value was ~3.9%.

Question: Which “Difference in egg production compared to the control group” value (ISA brown hens [2]; in vivo) does the source give for CC[C@H](C)C(=O)O[C@H]1CCC=C2C=C[C@H](C)[C@H](CC[C@@H]3C[C@@H](O)CC(=O)O3)[C@H]21 [Compactin, compactin] here?
Answer: The value was “did not cause any difference in egg production”.

Question: What about the “Reduction rates in the production of eggs” value (ISA brown hens [2]; in vivo) of the same compound?
Answer: Its value is “at most 5%”.

Question: And the Cholesterol content change (ISA brown hens [3]; 0.003 weight % compactin in feed)?
Answer: Its Cholesterol content change is −16%.

Question: And the Cholesterol content change (ISA brown hens [3]; 0.003 weight % compactin in feed, listed as compactin)?
Answer: Its Cholesterol content change is -16%.

Question: What about the Cholesterol content change (ISA brown hens [3]; 0.03 weight % compactin in feed) of the same compound?
Answer: Its Cholesterol content change is −29%.

Question: And the Cholesterol content change (ISA brown hens [3]; 0.03 weight % compactin in feed, listed as compactin)?
Answer: The Cholesterol content change was -29%.

Question: What about the “Toxicity in clinical trials” value [4] of the same compound?
Answer: Its value is “serious toxicity”.

Question: For CC(C)c1c(C(=O)Nc2ccccc2)c(-c2ccccc2)c(-c2ccc(F)cc2)n1CC[C@@H](O)C[C@@H](O)CC(=O)O [atorvastatin], which “Effect on the cholesterol content in eggs” value (hens [1]; according to U.S. Pat. No. 6,177,121) is on record?
Answer: Its value is “distinctly effective”.

Question: What about the “Reduction of egg production versus control group” value (hens [5]; 2, 3 and 4 weeks after administration, Table 2 of U.S. Pat. No. 6,177,121) of the same compound?
Answer: The value was 20%.

Question: What about the “Egg production reduced down to” value (hens [5]; after feeding for 5-week) of the same compound?
Answer: Its value is 70%.

Question: Which Egg production (ISA brown hens [2]; [6]) does the source give for pravastatin here?
Answer: Its Egg production is 84%.

Question: And the Egg production (ISA brown hens [2]; [7])?
Answer: The Egg production was 82%.

Question: And the “Egg production rate maintained” value (ISA brown hens [2]; after 6-week administration of pravastatin (0.003 and 0.03%))?
Answer: The value was “above 80%”.

Question: And the Cholesterol content change (ISA brown hens [3]; [6])?
Answer: The Cholesterol content change was −6%.

Question: What about the Cholesterol content change (ISA brown hens [3]; [7]) of the same compound?
Answer: The Cholesterol content change was −24%.
